Test results from patent US9080144B2, “Compositions and methods for promoting liposomal and cellular adhesion” (priority 2012, dated 2015).
“Also recorded” adds a separate entry of the source.

Tests used:
fibroblasts (fbs) [1] = assay: Fluorescence labeling optimization of DOTAP concentration for liposome-cell fusion; format: cell-based; conditions: keto-LUVs with 0.5-5% DOTAP, 5% ketone; fbs 4 h; rhod-oxyamine 0.7 mM 2 h
Protocol: Cell-surface labeling. In an embodiment of the present application, oxime chemistry is used to tailor and fluorescently label cell surfaces via a novel liposome fusion strategy. As mentioned, cationic lipid, DOTAP, was incorporated within keto- and oxyamine-LUVs to initiate electrostatic destabilization and subsequent fusion to the cell membrane. As such, the minimum DOTAP concentration required to facilitate liposome-cell fusion was determined to be […] through fluorescence labeling optimization. Keto-LUVs were generated using DOTAP and POPC concentrations that ranged from 0.5% to 5% and 90% to 94.5%, respectively, while maintaining a 5-% ketone concentration. These liposomes were incubated with fibroblasts (fbs) for 4 h, conjugated with an oxyamine-tethered rhodamine (rhod-oxyamine, 8) (0.7 mM, 2 h), and the cell fluorescence intensities were then compared. […] The liposomes for liposome-cell fusion events were approximately ˜60 nm in diameter, similar to those used for the liposome-liposome fusion characterization.

fibroblasts (fbs) [2] = assay: Cell-surface engineering: fluorescent labeling of fbs by liposome fusion and oxime conjugation; format: cell-based, mouse; conditions: liposome fusion 2 h plus complementary oxime dye
Protocol: Two cell-surface engineering methods were employed to fluorescently label fbs. In this first method, a solution of oxyamine vc-LUVs (6, 3 mM) was incubated with a ketone-functionalized fluorescein (7, 0.15 mM, 1 eq, 2 h), forming fluorescently labeled liposomes. The liposomes were then added to fbs in culture for 2 h. After fusion, the cells were washed with PBS (3×2 mL), trypsinized (1 mL, 5 min, 37° C., 5% CO2), diluted with CBS-containing media (˜10^2/mL), and seeded to a glass substrate (1×1 cm^2, 2 h). The cells were then imaged under a fluorescence microscope with an exposure time of 1/1200 s. In the second method, a solution of keto-LUVs (5, 200 μL, 0.6 mM) was added to fbs in culture for 2 h, resulting in membrane fusion and subsequent display of ketones from the cell surface (9). Rhod-oxyamine (8, 100 μL, 0.7 mM in H2O) was then added the cells for 2 h. After oxime formation, the fbs were washed with PBS (3×2 mL), trypsinized (1 mL, 5 min, 37° C., 5% CO2), diluted with CBS-containing media (˜10^2/mL), and seeded to a glass substrate (1×1 cm^2, 2 h). The cells were then imaged under a fluorescence microscope with an exposure time of 1/1200 s (see FIG. 3).

**Q.** For `CCCCCCCC/C=C\CCCCCCCC(=O)OCC(C[N+](C)(C)C)OC(=O)CCCCCCC/C=C\CCCCCCCC` (centres unmarked) [DOTAP, 1,2-dioleoyl-3-trimethylammonium-propane], which “minimum DOTAP concentration required to facilitate liposome-cell fusion” value (fibroblasts (fbs) [1]) is on record?
**A.** 2%

**Q.** `CCN(CC)c1ccc2c(-c3ccc(S(=O)(=O)NCCCCNC(=O)CON)cc3S(=O)(=O)[O-])c3ccc(=[N+](CC)CC)cc-3oc2c1` [compound 8, 5-(N-(4-(2-(aminooxy)acetamido)butyl)sulfamoyl)-2-(6-(diethylamino)-3-(diethyliminio)-3H-xanthen-9-yl)benzenesulfonate] was tested. Which “fluorescent labeling of fbs (microscopy)” value (fibroblasts (fbs) [2]) did it give?
**A.** fluorescence labeling of cells; also recorded: red fluorescent labeling of the cells
